Article PMC6817905, “Inhibition of translation termination by small molecules targeting ribosomal release factors” (Scientific Reports, 2019)

Key:
PTC of the ribosome [1] = target: PTC of the ribosome; parameters: method as in PMID 23824292; details: fold higher Ki than for termination; cited from earlier work
PTC of the ribosome [2] = target: PTC of the ribosome; parameters: method as in PMID 23824292; details: read-out: Apparent Ki, peptide release; cited from earlier work
[3] = test system: Staphylococcus aureus strain ATCC29213; assay: MIC on bacterial growth, wt S. aureus (broth micro-dilution); type: cell-based
Method: The minimal inhibitory concentrations (MIC) of the drugs were measured in 96-well round-bottom microtiter plates using cation-adjusted Mueller-Hinton II (MH II) media. All measurements were done with at least three biological replicates. Briefly, bacterial colonies from a non-selective agar plate were re-suspended in 0.9% NaCl to 0.5 McFarland ( ≅1.5×10^8 cfu/ml). The cell suspension was further diluted to ≅5×10^5 cfu/ml (50 µl of bacterial suspension to 10 ml of MHII) and then 90 µl of cell suspension ( ≅5×10^5 cfu/l) was added to each well. […] The MIC value was determined visually as the lowest concentration of drug that inhibited growth.

[4] = test system: Escherichia coli strain MG1655; assay: MIC on bacterial growth, wt E. coli (broth micro-dilution); type: cell-based; details: 500 mg l^−1 highest concentration tested
Method: The four different strains analyzed were wild type (wt) Staphylococcus aureus (strain ATCC 29213), wt Escherichia coli (strain MG1655, K12), a drug-hypersensitive E. coli lpxC mutant D22 (strain MG1655) and an efflux-defective E. coli ΔtolC mutant (strain MG1655). These were grown in cation-adjusted Mueller Hinton II media (MH II, Nordic Biolabs), the standard medium for antibiotic susceptibility testing. For overnight cell cultures one colony from a MH II (Nordic Biolabs) plate was inoculated in 1 ml MH II media in a 10 ml tube and the bacteria was incubated at 37 °C shaking at 190 rpm. Cells from the overnight culture was used for MIC determinations and time-kill experiments.
The minimal inhibitory concentrations (MIC) of the drugs were measured in 96-well round-bottom microtiter plates using cation-adjusted Mueller-Hinton II (MH II) media. All measurements were done with at least three biological replicates. Briefly, bacterial colonies from a non-selective agar plate were re-suspended in 0.9% NaCl to 0.5 McFarland ( ≅1.5×10^8 cfu/ml). The cell suspension was further diluted to ≅5×10^5 cfu/ml (50 µl of bacterial suspension to 10 ml of MHII) and then 90 µl of cell suspension ( ≅5×10^5 […]) was added to each well. […] The MIC value was determined visually as the lowest concentration of drug that inhibited growth.

Row | Compound | Ki for peptide bond formation relative to termination reaction (PTC of the ribosome [1]) | Ki (PTC of the ribosome [2]) | MIC S. aureus wt [3] | MIC E. coli K12 wt [4]
1 | CN(CC[C@H](N)CC(=O)N[C@H]1C=C[C@H](n2ccc(N)nc2=O)O[C@@H]1C(=O)O)C(=N)N [Blasticidin S] | 6 fold | ~30 nM | – | –
2 | kirromycin | – | – | 100 µg/mL | 50 µg/mL
